# In patent US20080022467A1, “Disazo dyes and their preparation and use” (ILFORD Imaging Switzerland GmbH, priority 2006, published 2008):
# Key:
# Assay type in all cases: physicochemical
# [1] = Dye solubility (saturated aqueous solution, spectrophotometric); settings: summary of Table 2
# Method: Dye solubility was determined with a spectrophotometer in the UV and in the visible spectral region. The spectra of the pure disazo dyes according to the invention were measured in a buffered aqueous solution at a value of pH of 7.0. Saturated aqueous solutions of the dyes were prepared at a temperature of 50° C. These solutions were afterwards cooled down to room temperature and diluted for the measurements after a waiting time of 24 hours in such a way that the absorption at the absorption maximum was between 0.8 and 1.5. This dilution factor allows the calculation of dye solubility.
# [2] = Light stability of printed patches (Weather-Ometer, xenon lamp); parameters: key to Light Stability (Class) on Recording Sheet A / Light Stability (Class) on Recording Sheet B / Light Stability (Class) on Recording Sheet C / Light Stability (Class) on Recording Sheet D / Light Stability (Class) on Recording Sheet E / Light Stability (Class) on Recording Sheet F / Light Stability (Class) on Recording Sheet G: A: excellent; B: good; C: satisfactory; D: unsatisfactory; settings: for Light Stability (Class) on Recording Sheet A: A: HP Printing Paper HPP 1122 (paper), 20° C., 50% relative humidity; for Light Stability (Class) on Recording Sheet A / Light Stability (Class) on Recording Sheet B / Light Stability (Class) on Recording Sheet C / Light Stability (Class) on Recording Sheet D / Light Stability (Class) on Recording Sheet E / Light Stability (Class) on Recording Sheet F / Light Stability (Class) on Recording Sheet G: 20 megalux hours; for Light Stability (Class) on Recording Sheet B: B: HP Premium Plus (polymer based); for Light Stability (Class) on Recording Sheet C: C: ILFORD Galerie Smooth Glossy (nanoporous); for Light Stability (Class) on Recording Sheet D: D: ILFORD Printasia Premium Photo Glossy Paper (nanoporous); for Light Stability (Class) on Recording Sheet E: E: ILFORD Galerie Classic Gloss Paper (polymer based); for Light Stability (Class) on Recording Sheet F: F: EPSON Premium Glossy Photo Paper (nanoporous); for Light Stability (Class) on Recording Sheet G: G: CANON Photo Paper Pro PR-101 (nanoporous); for light stability on all recording sheets (in words): summary of Table 4
# Method: (§1) The present invention, as far as it relates to recording liquids, is illustrated by the following examples using the disazo dyes of Table 1 according to the invention and dyes representing the state of the art. For each dye, 100 g of recording liquid were prepared by heating the necessary amount of dye (2.0 g-5.0 g), 6.0 g of ethylene glycol, 3.0 g of propylene-1,2-glycol, 3.0 g of 1-methyl-2-pyrrolidone, 0.3 g of an aqueous solution (50%) of Olin® 10G (available from Arch Chemicals Inc., Norwalk, USA), 0.3 g of Surfinol® 465 (available from Air Products and Chemicals Inc., Allentown, USA) and 0.1 g of Mergal® K 10N (available from Riedel-de-Haën, Seelze, Germany) together with water at a temperature of 50° C. under stirring for approximately 1 hour. The resulting solution was cooled down to a temperature of 20° C., its value of pH was adjusted to 7.5 and the solution was passed through a Millipore® filter of 0.3 μm pore diameter. The dye quantity was adjusted in such a way that the optical density of the printed image was similar for all dyes.
# (§2) Homogeneously colored square patches with an approximate density of 1.40 were then printed, using these recording liquids, with an ink jet printer Canon BJC 8500 onto the following recording sheets: • A: HP Printing Paper HPP 1122 (paper) • B: HP Premium Plus (polymer based recording sheet) • C: ILFORD Galerie Smooth Glossy (nanoporous recording sheet) • D: ILFORD Printasia Premium Photo Glossy Paper (nanoporous recording sheet) • E: ILFORD Galerie Classic Gloss Paper (polymer based recording sheet) • F: EPSON Premium Glossy Photo Paper (nanoporous recording sheet) • G: CANON Photo Paper Pro PR-101 (nanoporous recording sheet)
# The printed samples were irradiated using a Weather-Ometer® Ci35A (available from Atlas Material Testing Technology, Chicago, USA) with a 6500 W xenon lamp at a temperature of 20° C. and relative humidity of 50% until an illumination of 20 megalux hours was reached. The density loss was measured with a densitometer Spectrolino®. The percent density loss of initial density gives an indication of the light stability of the dyes on the printed recording sheet.
# [3] = Stability against degradation by ozone of printed patches; parameters: key: A: excellent; B: good; C: satisfactory; D: unsatisfactory; settings: ozone 1 ppm, 30° C., 50% relative humidity; for Resistance against Degradation by Ozone (Class) on Recording Sheet C: C: ILFORD Galerie Smooth Glossy (nanoporous); for Resistance against Degradation by Ozone (Class) on Recording Sheet D: D: ILFORD Printasia Premium Photo Glossy Paper (nanoporous); for Resistance against Degradation by Ozone (Class) on Recording Sheet F: F: EPSON Premium Glossy Photo Paper (nanoporous); for Resistance against Degradation by Ozone (Class) on Recording Sheet G: G: CANON Photo Paper Pro PR-101 (nanoporous)
# Method: as §1, §2
# The optical density of the colored square patches was measured with a Spectrolino® densitometer. Afterwards, the printed samples were stored for a predetermined time (for example 48 hours) in an ozone chamber, model 903 (available from Satra/Hampden, Great Britain) at a temperature of 30° C., a relative humidity of the air of 50% and an ozone concentration of 1 ppm at a velocity of the circulating, ozone containing air of 13 mm/s. After storage, the samples were re-measured. The density differences of these two measurements, expressed as per cent of the initial density, are an indication of the amount of dye loss due to the exposure to ozone.
solubility (in words) [1],Light Stability (Class) on Recording Sheet A [2],Light Stability (Class) on Recording Sheet B [2],Light Stability (Class) on Recording Sheet C [2],Light Stability (Class) on Recording Sheet D [2],Light Stability (Class) on Recording Sheet E [2],Light Stability (Class) on Recording Sheet F [2],Light Stability (Class) on Recording Sheet G [2],Resistance against Degradation by Ozone (Class) on Recording Sheet C [3],Resistance against Degradation by Ozone (Class) on Recording Sheet D [3],Resistance against Degradation by Ozone (Class) on Recording Sheet F [3],Resistance against Degradation by Ozone (Class) on Recording Sheet G [3],Molecule,light stability on all recording sheets (in words) [2]
equally high water solubility,C,A,D,C,C,B,B,A,B,A,A,"O=S(=O)([O-])c1cc(/N=N/c2ccc(Nc3nc(NCCCN4CCOCC4)nc(Nc4ccc(/N=N/c5cc(S(=O)(=O)[O-])c6cccc(S(=O)(=O)[O-])c6c5)cc4)n3)cc2)cc2c(S(=O)(=O)[O-])cccc12.[Na+].[Na+].[Na+].[Na+] [Dye No. IV, reference compound]",satisfactory or even unsatisfactory light stability
–,C,A,B,B,B,B,B,D,B,C,C,"Direct Yellow 132 [Dye No. III, reference compound]",satisfactory or even unsatisfactory light stability
